Experimental data as given in patent publication US10406230B2, “Exendin-4 analogue pegylated with polyethylene glycol or derivative thereof, preparation method thereof, and pharmaceutical composition for preventing or treating diabetes, containing same as active ingredient” (priority 2011, dated 2019).

Columns and labels:
[1] = test system: Type 2 diabetic C57BL/6 db/db mice; assay: Low blood glucose sustainability in non-fasting type 2 diabetic mice; format: in vivo; conditions: 25 nmol/kg intraperitoneal
Procedure: The following experiment was performed to evaluate low blood glucose sustainability of C40 site specific PEG bound exendin-4 composition according to the present invention in Type 2 diabetic mice.
Type 2 diabetic C57BL/6 db/db mice (male, 4-5 weeks old, Central Lab. Animal Inc.) were used, and animals were exposed to light at 12 hours cycle and were grown after having stabilized two week by allowing free intake of foods and water. The experimental animals were managed following the guideline of National Institute of Health (NIH) and authorized by Institutional Animal Care and Use Committee of Sungkyunkwan University, and the experiment was performed humanely.
C40-PEG5K-Ex4 (linear), C40-PEG20K-Ex4 (linear), C40-PEG20K-Ex4 (branch), C40-PEG23K-Ex4 (trimer) and C40-PEG50K-Ex4 (trimer) prepared from the Example 1 to 5 and Lys^27-PEG20K-Ex4 prepared in Comparative example 1b were intraperitoneally injected with 25 nmol/kg dose to male db/db mice (6-7 weeks old), blood was collected from tail vein of mice following the float time: 0, 0.5, 1, 2, 3, 4, 6, 8, 12, 24, 36, 48, 60, 72, 96 hours and blood glucose concentration was measured with ACCU-CHEK Sensor (Roche Diagnostics Corp., USA). Afterwards, the low blood glucose sustaining time (blood glucose level<8.35 mmol/l (150 mg/dL)) was additionally measured and shown in Table 4 and FIG. 12. In the present experiment, exendin-4 was used as the control group.

GLP-1 receptor (GLP-1R) = molecular target: T1, GLP-1 receptor (GLP-1R) (Rattus norvegicus, UniProt P32301); assay: RIN-m5F cell receptor binding affinity (I-125 exendin-4 displacement)
T1 construct: Islet cells (RIN-m5F, ATCC, Manassas, Va.) expressing vast quantity of GLP-1 receptor (GLP-1R) were inoculated in 12-wells plates; host or cells: RIN-m5F
T1 sequence (P32301 22-463): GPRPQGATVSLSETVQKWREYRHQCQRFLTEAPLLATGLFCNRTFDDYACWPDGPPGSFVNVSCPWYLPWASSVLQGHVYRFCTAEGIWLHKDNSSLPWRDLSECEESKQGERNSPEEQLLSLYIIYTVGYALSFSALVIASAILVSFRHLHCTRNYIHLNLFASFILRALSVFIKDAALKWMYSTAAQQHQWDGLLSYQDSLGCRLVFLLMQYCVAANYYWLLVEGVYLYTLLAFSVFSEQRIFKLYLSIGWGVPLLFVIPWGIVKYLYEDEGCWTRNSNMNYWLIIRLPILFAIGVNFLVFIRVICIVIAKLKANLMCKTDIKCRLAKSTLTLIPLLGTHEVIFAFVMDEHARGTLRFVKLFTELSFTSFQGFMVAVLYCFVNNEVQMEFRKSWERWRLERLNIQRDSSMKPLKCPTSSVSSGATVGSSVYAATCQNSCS
Procedure: Thorough washing was done with PBS including […] bovine serum albumin after two hours.

1b (Lys^27-PEG20K-Ex4): exendin-4 (SEQ ID NO: 2) PEGylated at Lys27 amine with 20 kDa mPEG-SPA [reference compound]
Blood glucose level (average) ([1]; time 0 h): 24.13 mmol/L
Blood glucose level (average) ([1]; time 0.5 h): 7.97 mmol/L
Blood glucose level (average) ([1]; time 1 h): 6.56 mmol/L
Blood glucose level (average) ([1]; time 2 h): 5.24 mmol/L
Blood glucose level (average) ([1]; time 3 h): 4.22 mmol/L
Blood glucose level (average) ([1]; time 4 h): 4.29 mmol/L
Blood glucose level (average) ([1]; time 6 h): 4.85 mmol/L
Blood glucose level (average) ([1]; time 8 h): 5.13 mmol/L
Blood glucose level (average) ([1]; time 12 h): 5.40 mmol/L
Blood glucose level (average) ([1]; time 24 h): 12.98 mmol/L
Blood glucose level (average) ([1]; time 36 h): 17.34 mmol/L
Blood glucose level (average) ([1]; time 48 h): 20.45 mmol/L
Blood glucose level (average) ([1]; time 60 h): 23.02 mmol/L

Example 1: exendin-4-Cys (cysteine at C-terminal #40 site, SEQ ID NO: 1) bound with linear 5 kDa mPEG-MAL
IC50 (GLP-1 receptor (GLP-1R); RIN-m5F cells, competition with 30 pM I-125 exendin-4 (9-39), 2 hours): 1.04 nM
activity (GLP-1 receptor affinity) better than Comparative example 1a (Lys^12-PEG5K-Ex4) (GLP-1 receptor (GLP-1R); ratio of IC50 values): 6 times
activity (GLP-1 receptor affinity) better than Comparative example 1b (Lys^27-PEG5K-Ex4) (GLP-1 receptor (GLP-1R); ratio of IC50 values): twice
activity (GLP-1 receptor affinity) better than Comparative example 2 (Nter-PEG5K-Ex4) (GLP-1 receptor (GLP-1R); ratio of IC50 values): 120 times
Blood glucose level (average) ([1]; time 0 h): 23.38 mmol/L
Blood glucose level (average) ([1]; time 0.5 h): 7.62 mmol/L
Blood glucose level (average) ([1]; time 1 h): 7.36 mmol/L
Blood glucose level (average) ([1]; time 2 h): 5.09 mmol/L
Blood glucose level (average) ([1]; time 3 h): 4.46 mmol/L
Blood glucose level (average) ([1]; time 4 h): 4.93 mmol/L
Blood glucose level (average) ([1]; time 6 h): 5.73 mmol/L
Blood glucose level (average) ([1]; time 8 h): 9.04 mmol/L
Blood glucose level (average) ([1]; time 12 h): 16.2 mmol/L
Blood glucose level (average) ([1]; time 24 h): 21.1 mmol/L

Example 2: exendin-4-Cys (SEQ ID NO: 1) bound at C40 with linear 20 kDa mPEG-MAL
low blood glucose sustaining time (time required for blood glucose level increasing back to 8.35 mmol/l) ([1]; blood glucose level<8.35 mmol/l (150 mg/dL)): 23.2 h
Blood glucose level (average) ([1]; time 0 h): 24.28 mmol/L
Blood glucose level (average) ([1]; time 0.5 h): 7.96 mmol/L
Blood glucose level (average) ([1]; time 1 h): 6.13 mmol/L
Blood glucose level (average) ([1]; time 2 h): 5.29 mmol/L
Blood glucose level (average) ([1]; time 3 h): 4.18 mmol/L
Blood glucose level (average) ([1]; time 4 h): 4.34 mmol/L
Blood glucose level (average) ([1]; time 6 h): 4.9 mmol/L
Blood glucose level (average) ([1]; time 8 h): 4.57 mmol/L
Blood glucose level (average) ([1]; time 12 h): 5.86 mmol/L
Blood glucose level (average) ([1]; time 24 h): 8.54 mmol/L
Blood glucose level (average) ([1]; time 36 h): 11.47 mmol/L
Blood glucose level (average) ([1]; time 48 h): 15.34 mmol/L
Blood glucose level (average) ([1]; time 60 h): 20.45 mmol/L
Blood glucose level (average) ([1]; time 72 h): 23.02 mmol/L

Example 3: exendin-4-Cys (SEQ ID NO: 1) bound at C40 with branch type 20 kDa mPEG-MAL
Blood glucose level (average) ([1]; time 0 h): 24.44 mmol/L
Blood glucose level (average) ([1]; time 0.5 h): 7.86 mmol/L
Blood glucose level (average) ([1]; time 1 h): 6.89 mmol/L
Blood glucose level (average) ([1]; time 2 h): 5.04 mmol/L
Blood glucose level (average) ([1]; time 3 h): 4.15 mmol/L
Blood glucose level (average) ([1]; time 4 h): 4.66 mmol/L
Blood glucose level (average) ([1]; time 6 h): 4.67 mmol/L
Blood glucose level (average) ([1]; time 8 h): 5.11 mmol/L
Blood glucose level (average) ([1]; time 12 h): 7.89 mmol/L
Blood glucose level (average) ([1]; time 24 h): 15.09 mmol/L
Blood glucose level (average) ([1]; time 36 h): 20.14 mmol/L
Blood glucose level (average) ([1]; time 48 h): 24.21 mmol/L
Blood glucose level (average) ([1]; time 60 h): 23.76 mmol/L
